# Columns and labels:
# Leishmania amazonensis [1] = experiment: Anti-leishmanial activity against Leishmania amazonensis MPRO/BR/1972/M1841-LV-79 promastigotes assessed as parasite growth inhibition incubated for 72 hrs by MTT assay; format: functional, organism-based; conditions: MPRO/BR/1972/M1841-LV-79, 72 h
# [2] = Selectivity index, ratio of EC50 for BALB/c mouse peritoneal macrophages to EC50 for Leishmania amazonensis MPRO/BR/1972/M1841-LV-79 amastigotes
# Leishmania infantum [3] = experiment: Anti-leishmanial activity against Leishmania infantum MHOM/BR/72 amastigotes infected in BALB/c mouse peritoneal macrophages assessed as reduction in the infection index incubated for 24 hrs by Giemsa staining method; format: functional, organism-based; conditions: MHOM/BR/72, 24 h
# Leishmania infantum [4] = experiment: Anti-leishmanial activity against Leishmania infantum MHOM/BR/72 promastigotes assessed as parasite growth inhibition incubated for 72 hrs by MTT assay; format: functional, organism-based; conditions: MHOM/BR/72, 72 h
# [5] = Cytotoxicity against Swiss mouse peritoneal macrophages incubated for 24 hrs by MTT assay; conditions: Peritoneal macrophage cell
# Leishmania amazonensis [6] = experiment: Anti-leishmanial activity against Leishmania amazonensis MPRO/BR/1972/M1841-LV-79 amastigotes infected in BALB/c mouse peritoneal macrophages assessed as reduction in the infection index incubated for 24 hrs by Giemsa staining method; format: functional, organism-based; conditions: MPRO/BR/1972/M1841-LV-79, 24 h
# [7] = Selectivity index, ratio of EC50 for BALB/c mouse peritoneal macrophages to EC50 for Leishmania amazonensis MPRO/BR/1972/M1841-LV-79 promastigotes
# [8] = Selectivity index, ratio of EC50 for BALB/c mouse peritoneal macrophages to EC50 for Leishmania infantum MHOM/BR/72 promastigotes
# [9] = Selectivity index, ratio of EC50 for BALB/c mouse peritoneal macrophages to EC50 for Leishmania infantum MHOM/BR/72 amastigotes
# [10] = Selectivity index, ratio of EC50 for BALB/c mouse peritoneal macrophages to EC50 for Trypanosoma cruzi Y epimastigotes
# Trypanosoma cruzi = experiment: Anti-trypanosomal activity against Trypanosoma cruzi Y epimastigotes assessed as parasite growth inhibition incubated for 72 hrs by MTT assay; format: functional, organism-based
EC50 (Leishmania infantum [3]) [µM],EC50 (Leishmania amazonensis [6]) [µM],EC50 (Trypanosoma cruzi) [µM],SMILES,EC50 (Leishmania amazonensis [1]) [µM],Ratio EC50 [2],EC50 (Leishmania infantum [4]) [µM],EC50 [5] [µM],Ratio EC50 [7],Ratio EC50 [8],Ratio EC50 [9],Ratio EC50 [10]
19.8,6.25,,N=C(N)c1ccc(OCCCCCOc2ccc(C(=N)N)cc2)cc1 [PENTAMIDINE],10.2,5.71,67.7,35.7,3.5,0.53,1.81,
,,75.9,O=C(/C=C/c1ccccc1O)c1ccccc1,334,,91.7,143,0.43,1.56,,1.88
,,68.3,O=C(/C=C/c1cccc(O)c1)c1ccccc1 [3-HYDROXY CHALCONE],412,,185,143,0.35,0.96,,2.09
63.9,25.8,26.2,CC(C)=CCC/C(C)=C/COc1cccc(/C=C/C(=O)c2ccccc2)c1,8.92,3.17,7.81,81.9,9.18,10.49,1.28,3.12
10.4,19.9,21.6,CC(C)=CCOc1ccccc1/C=C/C(=O)c1ccccc1,4.38,5.58,4.69,111,25.41,23.73,10.69,5.16
2.98,4.92,,C[C@@H]1[C@H](O)[C@@H](C)/C=C/C=C/C=C/C=C/C=C/C=C/C=C/[C@H](O[C@@H]2O[C@H](C)[C@@H](O)[C@H](N)[C@@H]2O)C[C@@H]2O[C@](O)(C[C@@H](O)C[C@@H](O)[C@H](O)CC[C@@H](O)C[C@@H](O)CC(=O)O[C@H]1C)C[C@H](O)[C@H]2C(=O)O [AMPHOTERICIN B],3.22,4.7,0.92,23.1,7.17,25.11,7.75,
,,4.07,O=C(Cn1ccnc1[N+](=O)[O-])NCc1ccccc1 [BENZNIDAZOLE],,,,,,,,
32.5,21.9,23.8,CC(C)=CCC/C(C)=C/CC/C(C)=C/COc1cccc(/C=C/C(=O)c2ccccc2)c1,9.25,2.52,5.98,55.1,6,9.22,1.69,2.32
,,103,O=C(/C=C/c1ccccc1)c1ccccc1 [CHALCONE],13.2,,8.89,9.5,0.7,1.06,,0.09
2.24,2.9,69.4,CC(C)=CCC/C(C)=C/CC/C(C)=C/COc1ccccc1/C=C/C(=O)c1ccccc1,6.47,48.5,10.2,141,21.74,13.78,62.79,2.03

# From ChEMBL document CHEMBL3600370, “Synthesis and evaluation of novel prenylated chalcone derivatives as anti-leishmanial and anti-trypanosomal compounds” (Bioorg Med Chem Lett, 2015)
